Test results reported in patent US9446039B2, “Aminoheteroaryl compounds as MTH1 inhibitors” (CEMM—FORSCHUNGSZENTRUM FÜR MOLEKULARE MEDIZIN GMBH, priority 2012, dated 2016).

Columns and labels:
Format in all cases: binding
[1] = target: T1, SW480 colon carcinoma cells lysate proteins (Homo sapiens, UniProt P52565); details: PreyGene ARHGDIA
T1 sequence (P52565 1-204): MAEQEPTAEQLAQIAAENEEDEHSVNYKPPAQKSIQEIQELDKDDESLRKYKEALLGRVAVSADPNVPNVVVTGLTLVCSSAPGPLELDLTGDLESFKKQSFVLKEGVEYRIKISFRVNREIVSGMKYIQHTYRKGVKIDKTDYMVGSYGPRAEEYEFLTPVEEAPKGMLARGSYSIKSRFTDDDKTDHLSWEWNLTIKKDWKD

[2] = target: T2, SW480 colon carcinoma cells lysate proteins (Homo sapiens, UniProt P68104); details: PreyGene EEF1A1; SW480 cells
T2 sequence (P68104 1-462): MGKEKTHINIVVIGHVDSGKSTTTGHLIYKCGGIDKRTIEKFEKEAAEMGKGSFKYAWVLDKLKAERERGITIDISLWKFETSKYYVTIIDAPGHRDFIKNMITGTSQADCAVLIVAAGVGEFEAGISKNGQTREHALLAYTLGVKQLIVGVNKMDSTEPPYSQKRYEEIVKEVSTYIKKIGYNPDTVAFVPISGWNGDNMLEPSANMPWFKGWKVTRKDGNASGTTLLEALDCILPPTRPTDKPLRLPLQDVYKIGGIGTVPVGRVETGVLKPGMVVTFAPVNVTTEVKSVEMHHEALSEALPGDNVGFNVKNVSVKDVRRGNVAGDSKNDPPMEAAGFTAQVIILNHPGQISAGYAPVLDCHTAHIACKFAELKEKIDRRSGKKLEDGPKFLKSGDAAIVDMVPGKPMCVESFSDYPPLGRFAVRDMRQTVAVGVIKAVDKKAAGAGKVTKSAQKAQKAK

[3] = target: T3, SW480 colon carcinoma cells lysate proteins (Homo sapiens, UniProt Q9BRA2); details: PreyGene TXNDC17
T3 sequence (Q9BRA2 1-123): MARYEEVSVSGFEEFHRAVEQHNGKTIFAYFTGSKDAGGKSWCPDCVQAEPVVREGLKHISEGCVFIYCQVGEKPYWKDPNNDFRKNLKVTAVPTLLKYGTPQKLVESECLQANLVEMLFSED

[4] = target: SW480 colon carcinoma cells lysate proteins (Homo sapiens, UniProt Q9NZI8); details: PreyGene IGF2BP1; SW480 cells
[5] = target: SW480 colon carcinoma cells lysate proteins (Homo sapiens, UniProt Q71UM5); details: PreyGene RPS27L; SW480 cells
[6] = target: T4, SW480 colon carcinoma cells lysate proteins (Homo sapiens, UniProt P08758); details: PreyGene ANXA5
T4 sequence (P08758 1-320): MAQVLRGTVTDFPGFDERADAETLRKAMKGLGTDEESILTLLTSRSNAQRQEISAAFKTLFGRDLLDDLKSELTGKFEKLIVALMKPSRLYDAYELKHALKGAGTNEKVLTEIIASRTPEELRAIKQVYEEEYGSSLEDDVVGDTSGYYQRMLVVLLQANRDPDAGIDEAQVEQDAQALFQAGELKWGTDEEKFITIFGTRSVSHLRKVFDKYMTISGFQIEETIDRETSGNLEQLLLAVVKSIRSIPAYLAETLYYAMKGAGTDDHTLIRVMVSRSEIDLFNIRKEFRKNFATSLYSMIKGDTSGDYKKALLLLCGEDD

[7] = target: SW480 colon carcinoma cells lysate proteins (Homo sapiens, UniProt O15372); details: PreyGene EIF3H
[8] = target: SW480 colon carcinoma cells lysate proteins (Homo sapiens, UniProt O43707); details: PreyGene ACTN4
[9] = target: T5, SW480 colon carcinoma cells lysate proteins (Homo sapiens, UniProt B2RPK0); details: PreyGene HMGB1P1
T5 sequence (B2RPK0 1-211): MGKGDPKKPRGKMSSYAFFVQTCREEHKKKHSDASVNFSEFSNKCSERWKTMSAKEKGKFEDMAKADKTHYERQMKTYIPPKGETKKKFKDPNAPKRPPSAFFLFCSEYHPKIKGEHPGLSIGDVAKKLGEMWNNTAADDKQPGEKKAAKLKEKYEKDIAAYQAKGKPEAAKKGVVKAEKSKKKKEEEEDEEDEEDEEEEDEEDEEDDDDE

[10] = target: SW480 colon carcinoma cells lysate proteins (Homo sapiens, UniProt P99999); details: PreyGene CYCS
[11] = target: SW480 colon carcinoma cells lysate proteins (Homo sapiens, UniProt P62826); details: PreyGene RAN

Sequence of SW480 colon carcinoma cells lysate proteins (Homo sapiens, UniProt Q9NZI8) (Q9NZI8 whole entry): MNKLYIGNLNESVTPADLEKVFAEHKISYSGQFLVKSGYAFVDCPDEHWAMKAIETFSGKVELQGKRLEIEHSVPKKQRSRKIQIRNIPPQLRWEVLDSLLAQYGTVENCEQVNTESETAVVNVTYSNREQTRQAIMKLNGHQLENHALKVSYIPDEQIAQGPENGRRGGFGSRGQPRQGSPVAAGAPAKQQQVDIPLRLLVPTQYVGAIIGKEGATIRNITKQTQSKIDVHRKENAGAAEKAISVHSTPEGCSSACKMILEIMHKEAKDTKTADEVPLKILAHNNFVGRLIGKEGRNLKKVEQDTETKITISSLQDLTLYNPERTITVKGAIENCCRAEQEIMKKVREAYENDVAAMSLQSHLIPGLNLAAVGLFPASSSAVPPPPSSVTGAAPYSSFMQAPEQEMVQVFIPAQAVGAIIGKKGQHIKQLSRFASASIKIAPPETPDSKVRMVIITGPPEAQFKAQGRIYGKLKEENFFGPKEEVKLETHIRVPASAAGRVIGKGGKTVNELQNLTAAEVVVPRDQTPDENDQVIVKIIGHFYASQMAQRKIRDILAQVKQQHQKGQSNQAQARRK
Sequence of SW480 colon carcinoma cells lysate proteins (Homo sapiens, UniProt O15372) (O15372 whole entry): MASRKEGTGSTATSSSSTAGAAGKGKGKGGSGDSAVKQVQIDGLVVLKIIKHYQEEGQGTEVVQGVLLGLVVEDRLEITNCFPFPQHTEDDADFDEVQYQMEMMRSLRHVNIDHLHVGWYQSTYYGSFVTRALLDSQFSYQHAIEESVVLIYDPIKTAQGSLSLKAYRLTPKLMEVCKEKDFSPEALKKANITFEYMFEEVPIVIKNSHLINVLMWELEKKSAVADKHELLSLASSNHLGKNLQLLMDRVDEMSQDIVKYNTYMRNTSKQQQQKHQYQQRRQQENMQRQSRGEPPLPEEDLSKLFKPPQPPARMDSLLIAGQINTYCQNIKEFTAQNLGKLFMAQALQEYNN
Sequence of SW480 colon carcinoma cells lysate proteins (Homo sapiens, UniProt O43707) (O43707 whole entry): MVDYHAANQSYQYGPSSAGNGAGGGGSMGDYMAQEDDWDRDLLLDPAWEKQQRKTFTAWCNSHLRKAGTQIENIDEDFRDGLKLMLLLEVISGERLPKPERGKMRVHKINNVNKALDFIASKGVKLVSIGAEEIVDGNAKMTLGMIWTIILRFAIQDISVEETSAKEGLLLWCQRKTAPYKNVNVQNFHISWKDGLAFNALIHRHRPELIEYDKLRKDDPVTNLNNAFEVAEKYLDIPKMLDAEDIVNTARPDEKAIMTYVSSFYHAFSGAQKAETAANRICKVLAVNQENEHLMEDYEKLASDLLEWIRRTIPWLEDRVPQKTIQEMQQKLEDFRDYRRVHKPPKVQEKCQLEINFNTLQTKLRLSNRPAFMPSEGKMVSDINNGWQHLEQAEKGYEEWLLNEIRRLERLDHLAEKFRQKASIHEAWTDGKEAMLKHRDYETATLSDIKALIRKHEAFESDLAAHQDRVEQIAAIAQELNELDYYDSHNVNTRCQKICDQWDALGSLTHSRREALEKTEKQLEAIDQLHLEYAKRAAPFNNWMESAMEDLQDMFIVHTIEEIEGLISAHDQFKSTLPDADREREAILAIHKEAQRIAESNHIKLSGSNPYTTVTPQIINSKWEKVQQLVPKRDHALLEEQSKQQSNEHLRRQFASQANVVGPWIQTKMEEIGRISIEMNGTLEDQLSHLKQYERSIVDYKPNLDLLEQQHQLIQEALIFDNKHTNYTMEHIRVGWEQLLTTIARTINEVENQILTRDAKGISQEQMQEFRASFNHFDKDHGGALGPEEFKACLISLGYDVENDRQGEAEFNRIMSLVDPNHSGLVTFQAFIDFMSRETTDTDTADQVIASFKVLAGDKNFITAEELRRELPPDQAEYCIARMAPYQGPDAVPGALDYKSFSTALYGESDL
Sequence of SW480 colon carcinoma cells lysate proteins (Homo sapiens, UniProt P99999) (P99999 whole entry): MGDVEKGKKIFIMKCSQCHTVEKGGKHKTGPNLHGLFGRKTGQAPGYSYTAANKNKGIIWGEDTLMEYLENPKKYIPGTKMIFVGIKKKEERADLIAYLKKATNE

C[C@H](Oc1cc(-c2cnn(C3CCNCC3)c2)cnc1N)c1c(Cl)ccc(F)c1Cl [(5)-crizotinib]
AvgP [1]: 0.4128
SC.Exp. 1-1 [1]: 2
SC.Exp. 1-2 [1]: 3
SC.Exp. 2-1 [1]: 0
SC.Exp. 2-2 [1]: 0
Sum (SC.Exp.) [1]: 5
AvgP [2]: 0
SC.Exp. 1-1 [2]: 23
SC.Exp. 1-2 [2]: 21
SC.Exp. 2-1 [2]: 8
SC.Exp. 2-2 [2]: 8
SC.Exp. Sum [2]: 60
AvgP [3]: 0.1862
SC.Exp. 1-1 [3]: 2
SC.Exp. 1-2 [3]: 3
SC.Exp. 2-1 [3]: 0
SC.Exp. 2-2 [3]: 0
Sum (SC.Exp.) [3]: 5
AvgP [4]: 0
SC.Exp. 1-1 [4]: 4
SC.Exp. 1-2 [4]: 8
SC.Exp. 2-1 [4]: 4
SC.Exp. 2-2 [4]: 6
SC.Exp. Sum [4]: 22
AvgP [5]: 0
SC.Exp. 1-1 [5]: 0
SC.Exp. 1-2 [5]: 1
SC.Exp. 2-1 [5]: 0
SC.Exp. 2-2 [5]: 0
SC.Exp. Sum [5]: 1
AvgP [6]: 0.4332
SC.Exp. 1-1 [6]: 9
SC.Exp. 1-2 [6]: 6
SC.Exp. 2-1 [6]: 0
SC.Exp. 2-2 [6]: 0
Sum (SC.Exp.) [6]: 15
AvgP [7]: 0.2043
SC.Exp. 1-1 [7]: 3
SC.Exp. 1-2 [7]: 0
SC.Exp. 2-1 [7]: 0
SC.Exp. 2-2 [7]: 0
Sum (SC.Exp.) [7]: 3
AvgP [8]: 0.2923
SC.Exp. 1-1 [8]: 4
SC.Exp. 1-2 [8]: 4
SC.Exp. 2-1 [8]: 0
SC.Exp. 2-2 [8]: 0
Sum (SC.Exp.) [8]: 8
AvgP [9]: 0.3829
SC.Exp. 1-1 [9]: 2
SC.Exp. 1-2 [9]: 2
SC.Exp. 2-1 [9]: 0
SC.Exp. 2-2 [9]: 0
Sum (SC.Exp.) [9]: 4
AvgP [10]: 0.391
SC.Exp. 1-1 [10]: 2
SC.Exp. 1-2 [10]: 3
SC.Exp. 2-1 [10]: 0
SC.Exp. 2-2 [10]: 0
Sum (SC.Exp.) [10]: 5
AvgP [11]: 0.3036
SC.Exp. 1-1 [11]: 5
SC.Exp. 1-2 [11]: 6
SC.Exp. 2-1 [11]: 0
SC.Exp. 2-2 [11]: 0
Sum (SC.Exp.) [11]: 11
